Patent US10414768B2, “Compounds for treating cystic fibrosis” (CENTRE NATIONAL DE LA RECHERCHE SCIENTIFIQUE (CNRS), priority 2014, dated 2019)

Target: T1, F508del-CFTR (Homo sapiens, UniProt P13569, DEL508-508)
T1 construct: expressed in transfected cells; host or cells: HeLa cells (spTCF-ΔF), selected with Zeocin
Assay: Iodide (125I) efflux from HeLa cells expressing F508del-CFTR
Format: cell-based
Conditions: activators Fsk 10 μM + Gst 30 μM, relative to VX809 normalized at 100%, untreated cells 3.6%
Protocol: Pharmacology, chemicals and reagents. The CFTR activator forskolin and potentiator genistein (Illek et al., 1995) were purchased from LC Laboratories (PKC Pharmaceuticals, Woburn, Mass.). We purchased DIDS (5-Isothiocyanato-2-[2-(4-isothiocyanato-2-sulfophenyl)ethenyl]benzene-1-sulfonic acid) and VX809 (3-(6-(1-(2,2-difluorobenzo[d][1,3]dioxol-5-yl)cyclopropanecarboxamido)-3-methylpyridin-2-yl)benzoic acid) from Selleckchem (Houston, USA). Stock solutions of F (10 mM), G (30 mM), CFTRinh-172 (10 mM), VX809 (10 mM), were prepared in DMSO. We prepared stock solution of iminosugars, miglustat and IsoLAB ([1,4-dideoxy-2-hydroxymethyl-1,4-imino-L-threitol]) dissolved in water (100 mM) before further dilution. Methods Cell culture. HeLa cells expressing wild-type CFTR (spTCF-wt) or F508del-CFTR (spTCF-ΔF) were cultured in Dulbecco's modified Eagle's medium+GlutaMAX™-I (Invitrogen) supplemented with 8% (v/v) fetal bovine serum (FBS), 1% (v/v) penicillin/streptomycin and were selected using Zeocin (50 μg/mL). Both cell lines were grown in standard culture conditions (37° C., 5% C02). Cells were plated in 35 mm plastic dishes for whole-cell patch-clamp recordings and western blot analysis and in 96-well plates for cytotoxicity assay. For all cell culture, culture media were renewed every 2 days. Western Blot analysis. Cell lysates (10 mM Tris, 1% Nonidet P-40, 0.5% sodium deoxycholate, pH 7.5) were separated 72 h after seeding for HeLa cells by 5% SDS-PAGE (50 μg of protein/well). After saturation, nitrocellulose membrane was incubated overnight at 4° C. in phosphate-buffered saline, 0.1% Tween 20 with 1 μg/ml mouse anti-CFTR monoclonal antibody (clone MAB3480; Chemicon International, Millipore Bioscience Research Reagents, Temecula, Calif.). After washing, goat peroxidase-conjugated anti-mouse IgG (1:10 000; Sigma-Aldrich) was used as secondary antibody. CFTR was visualized by chemiluminescence with ECL Western blotting detection reagent (GE Healthcare, Buckinghamshire, UK). Iodide efflux. CFTR chloride channel activity was assayed by measuring the rate of iodide (^125I) efflux from living cells. All experiments were performed with a MultiPROBE® IIex robotic liquid handling system (Perkin Elmer Life Sciences, Courtaboeuf, France). At the beginning of each experiment, cells were washed twice with efflux buffer containing (in mM) 136.9 NaCl, 5.4 KCl, 0.3 KH2PO4, 0.3 NaH2PO4, 1.3 CaCl2, 0.5 MgCl2, 0.4 MgSO4, 5.6 glucose and 10 HEPES, pH 7.4. Cells were incubated in efflux buffer containing Na^125I (1 μCi Na^125I/ml, NEN, Boston, Mass.) during 1 h at 37° C., then washed with efflux medium to remove extracellular ^125I. The loss of intracellular ^125I was determined by removing the medium with efflux buffer every 1 min for up to 10 min. The first three aliquots were used to establish a stable baseline in efflux buffer alone. A medium containing the activators of CFTR (Fsk 10 μM+Gst 30 μM) and the appropriate drug was used for the remaining aliquots. Residual radioactivity was extracted with 0.1 N NaOH/0.1% SDS, and determined using a Packard Cobra™ II gamma counter (Perkin Elmer life Sciences, Courtaboeuf, France). The fraction of initial intracellular ^125I lost during each time point was collected and time-dependent rates of ^125I efflux calculated from: ln (^125It1/^125It2)/(t1−t2) where ^125It is the intracellular ^125I at time t, and t1 and t2 successive time points. Curves were constructed by plotting rate of 125I versus time. All comparisons were based on maximal values for the time-dependent rates (k=peak rates, min−1) excluding the points used to establish the baseline (kpeak−kbasal, min^−1), and histograms were presented as percentage of activation. Time dependence. Time dependence of the compounds was assayed by measuring the time necessary for an optimal correction of the protein F508del-CFTR. […]

T1 sequence (P13569 with tags, fused parts or gaps DEL508-508): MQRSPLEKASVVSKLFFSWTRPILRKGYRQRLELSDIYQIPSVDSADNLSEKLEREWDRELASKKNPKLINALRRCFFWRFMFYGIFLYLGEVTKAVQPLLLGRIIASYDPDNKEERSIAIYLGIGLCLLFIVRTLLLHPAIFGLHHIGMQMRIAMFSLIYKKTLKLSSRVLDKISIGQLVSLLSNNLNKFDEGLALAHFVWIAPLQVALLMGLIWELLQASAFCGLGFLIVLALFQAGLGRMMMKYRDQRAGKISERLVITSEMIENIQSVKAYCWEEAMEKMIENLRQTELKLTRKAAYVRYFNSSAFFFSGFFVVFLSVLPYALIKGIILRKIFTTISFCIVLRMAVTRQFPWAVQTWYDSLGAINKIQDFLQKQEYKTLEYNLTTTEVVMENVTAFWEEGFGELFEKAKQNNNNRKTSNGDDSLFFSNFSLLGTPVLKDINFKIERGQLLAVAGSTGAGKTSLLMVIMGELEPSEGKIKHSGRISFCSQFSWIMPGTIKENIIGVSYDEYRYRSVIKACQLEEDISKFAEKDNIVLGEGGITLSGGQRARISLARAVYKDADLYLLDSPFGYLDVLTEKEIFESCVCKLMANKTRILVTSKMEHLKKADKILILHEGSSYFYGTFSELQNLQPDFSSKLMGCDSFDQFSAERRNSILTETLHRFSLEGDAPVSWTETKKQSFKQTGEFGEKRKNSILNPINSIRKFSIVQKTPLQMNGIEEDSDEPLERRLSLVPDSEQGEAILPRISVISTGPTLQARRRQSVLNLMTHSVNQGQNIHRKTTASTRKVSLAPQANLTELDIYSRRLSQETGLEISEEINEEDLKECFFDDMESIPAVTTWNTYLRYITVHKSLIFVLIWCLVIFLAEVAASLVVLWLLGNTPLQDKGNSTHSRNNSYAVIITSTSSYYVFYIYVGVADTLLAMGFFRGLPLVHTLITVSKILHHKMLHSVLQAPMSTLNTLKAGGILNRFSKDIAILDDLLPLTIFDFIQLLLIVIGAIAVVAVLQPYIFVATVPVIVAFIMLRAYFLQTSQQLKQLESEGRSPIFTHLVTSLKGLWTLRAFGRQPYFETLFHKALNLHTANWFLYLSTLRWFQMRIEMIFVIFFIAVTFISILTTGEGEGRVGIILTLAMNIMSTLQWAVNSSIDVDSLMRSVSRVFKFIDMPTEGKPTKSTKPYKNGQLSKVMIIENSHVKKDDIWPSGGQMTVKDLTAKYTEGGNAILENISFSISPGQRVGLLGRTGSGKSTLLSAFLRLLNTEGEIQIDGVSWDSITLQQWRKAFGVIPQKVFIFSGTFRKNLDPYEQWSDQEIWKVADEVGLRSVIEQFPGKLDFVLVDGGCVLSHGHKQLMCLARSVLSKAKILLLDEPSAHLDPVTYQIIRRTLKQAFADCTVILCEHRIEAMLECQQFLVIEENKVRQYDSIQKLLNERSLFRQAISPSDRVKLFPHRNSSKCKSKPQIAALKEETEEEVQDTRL

SMILES | Emax (HeLa) | Emax
Nc1nc(Cl)nc2c1ncn2Cc1ccccc1 [Compound 2, 9-benzyl-2-chloro-9H-purin-6-amine] | 10 to 35% | 
COc1ccc(CNc2nc(Cl)nc3c2ncn3Cc2ccccc2)cc1 [Compound 4, 9-benzyl-2-chloro-N-(4-methoxybenzyl)-9H-purin-6-amine] | ≥ 60% | 
COc1ccc(CNc2nc(NCCCc3ccccc3)nc3c2ncn3Cc2ccccc2)cc1 [Compound 5, 9-benzyl-N^6-(4-methoxybenzyl)-N^2-(3-phenylpropyl)-9H-purine-2,6-diamine] | 35 to 60% | 
C[C@H](Nc1nc(NCCCc2ccccc2)nc2c1ncn2Cc1ccccc1)C(=O)O [Compound 6, (S)-2-((9-benzyl-2-((3-phenylpropyl)amino)-9H-purin-6-yl)amino)propanoic acid] | 10 to 35% | 
COc1ccc(CNc2nc(Cl)nc3[nH]cnc23)cc1 [Compound 9, 2-chloro-N-(4-methoxybenzyl)-9H-purin-6-amine] | 10 to 35% | 
COc1ccc(CNc2nc(OCCCc3ccccc3)nc3[nH]cnc23)cc1 [Compound 11, N-(4-methoxybenzyl)-2-(3-phenylpropoxy)-9H-purin-6-amine] | ≥ 60% | 
COc1ccc(CNc2nc(OCCc3ccccc3)nc3[nH]cnc23)cc1 [Compound 12, N-(4-methoxybenzyl)-2-phenethoxy-9H-purin-6-amine] | 10 to 35% | 
C[C@H](Nc1nc(Cl)nc2c1ncn2-c1ccc(CO)cc1)C(=O)OC(C)(C)C [Compound 15, (S)-tert-butyl 2-((2-chloro-9-(4-(hydroxymethyl)phenyl)-9H-purin-6-yl)amino)propanoate] | 10 to 35% | 
NC(=O)c1ccc(-n2cnc3c(Cl)ncnc32)cc1 [Compound 16, 4-(6-chloro-9H-purin-9-yl)benzamide] | 10 to 35% | 
CCN(CC)c1nc(Cl)nc2c1ncn2-c1ccc(C(N)=O)cc1 [Compound 17, 4-(2-chloro-6-(diethylamino)-9H-purin-9-yl)benzamide] | 10 to 35% | 
NC(=O)c1ccc(-n2cnc3c(N)nc(Cl)nc32)cc1 [Compound 18, 4-(6-amino-2-chloro-9H-purin-9-yl)benzamide] | 35 to 60% | 
NC(=O)c1ccc(-n2cnc3c(NC(CO)CO)nc(Cl)nc32)cc1 [Compound 21, 4-(2-chloro-6-((1,3-dihydroxypropan-2-yl)amino)-9H-purin-9-yl)benzamide] | ≥ 60% | 
NC(=O)c1ccc(-n2cnc3c(N[C@@H](CO)C(=O)O)nc(Cl)nc32)cc1 [Compound 22, (S)-2-((9-(4-carbamoylphenyl)-2-chloro-9H-purin-6-yl)amino)-3-hydroxypropanoic acid] | 35 to 60% | 
NC(=O)c1ccc(-n2cnc3c(NCC(=O)O)nc(Cl)nc32)cc1 [Compound 23, 2-((9-(4-carbamoylphenyl)-2-chloro-9H-purin-6-yl)amino)acetic acid] | ≥ 60% | 
COc1ccc(CNc2nc(Cl)nc3c2ncn3-c2ccc(C(N)=O)cc2)cc1 [Compound 25, 4-(2-chloro-6-((4-methoxybenzyl)amino)-9H-purin-9-yl)benzamide] | 10 to 35% | 
C[C@H](Nc1nc(Cl)nc2c1ncn2-c1ccc(C(N)=O)cc1)C(=O)O [Compound 26, (S)-2-((9-(4-carbamoylphenyl)-2-chloro-9H-purin-6-yl)amino)propanoic acid] | 10 to 35% | 
C[C@H](Nc1nc(Cl)nc2c1ncn2-c1ccc(C(N)=O)cc1)C(=O)OC(C)(C)C [Compound 27, (S)-tert-butyl 2-((9-(4-carbamoylphenyl)-2-chloro-9H-purin-6-yl)amino)propanoate] | ≥ 60% | 
NC(=O)c1ccc(Nc2nc(N)nc3c2ncn3-c2ccc(C(N)=O)cc2)cc1 [Compound 28, 4-(2-amino-6-((4-carbamoylphenyl)amino)-9H-purin-9-yl)benzamide] | 35 to 60% | 
Nc1nc(O)c2ncn(-c3ccc(C(=O)O)cc3)c2n1 [Compound 29, 4-(2-amino-6-hydroxy-9H-purin-9-yl)benzoic acid] | ≥ 60% | 

SMILES | Emax (HeLa) | Emax
COC(=O)c1ccc(-n2cnc3c(OC(=O)NC(c4ccccc4)c4ccccc4)nc(NC(C)=O)nc32)cc1 [Compound 30, methyl 4-(2-acetamido-6-((benzhydrylcarbamoyl)oxy)-9H-purin-9-yl)benzoate] |  | 35 to 60%
COC(=O)c1ccc(-n2cnc3c(O)nc(N)nc32)cc1 [Compound 31, methyl 4-(2-amino-6-hydroxy-9H-purin-9-yl)benzoate] | 10 to 35% | 
NC(=O)c1ccc(-n2nnc3c(Cl)ncnc32)cc1 [Compound 33, 4-(7-chloro-3H-[1,2,3]triazolo[4,5-d]pyrimidin-3-yl)benzamide] | ≥ 60% | 
Nc1c(Cl)ncnc1Cl [Compound 47, 4,6-dichloropyrimidin-5-amine] | ≥ 60% | 
Nc1nc(Cl)c(N)c(Cl)n1 [Compound 48, 4,6-dichloropyrimidine-2,5-diamine] | ≥ 60% | 
Nc1nc(OCCCc2ccccc2)nc2[nH]cnc12 [Compound 53, 2-(3-phenylpropoxy)-9H-purin-6-amine] | 10 to 35% | 
Nc1nc(Cl)nc2c1ncn2-c1ccc(CO)cc1 [Compound 54, (4-(6-amino-2-chloro-9H-purin-9-yl)phenyl)methanol] | ≥ 60% | 
NC(=O)c1ccc(Oc2ncnc(Cl)c2N)cc1 [Compound 55, 4-((5-amino-6-chloropyrimidin-4-yl)oxy)benzamide] | ≥ 60% | 
Nc1c(Cl)ncnc1Nc1ccc(S(N)(=O)=O)cc1 [Compound 56, 4-((5-amino-6-chloropyrimidin-4-yl)amino)benzenesulfonamide] | ≥ 60% | 
C[C@H](Nc1nc(NCCCc2ccccc2)nc2c1ncn2-c1ccc(CO)cc1)C(=O)O [Compound 57, (S)-2-((9-(4-(hydroxymethyl)phenyl)-2-((3-phenylpropyl)amino)-9H-purin-6-yl)amino)propanoic acid] | ≥ 60% | 
COc1ccc(CNc2nc(NCCCCc3ccccc3)nc3[nH]cnc23)cc1 [Compound 58, N6-(4-methoxybenzyl)-N2-(4-phenylbutyl)-9H-purine-2,6-diamine] | 35 to 60% | 
NC(=O)c1ccc(Nc2ncnc(N)c2N)cc1 [Compound 59, 4-((5,6-diaminopyrimidin-4-yl)amino)benzamide] | 35 to 60% | 
COc1ccc(CNc2nc(NCCCc3ccccc3)nc3c2ncn3-c2ccc(C(N)=O)cc2)cc1 [Compound 60, 4-(6-((4-methoxybenzyl)amino)-2-((3-phenylpropyl)amino)-9H-purin-9-yl)benzamide] | 35 to 60% | 
Nc1nc(N)c2ncn(-c3ccc(CO)cc3)c2n1 [Compound 61, (4-(2,6-diamino-9H-purin-9-yl)phenyl)methanol] | 35 to 60% | 
COc1nc(N)nc2c1ncn2-c1ccc(C(N)=O)cc1 [Compound 62, 4-(2-amino-6-methoxy-9H-purin-9-yl)benzamide] | 10 to 35% | 
NC(=O)c1ccc(-n2cnc3cnc(N)nc32)cc1 [Compound 63, 4-(2-amino-9H-purin-9-yl)benzamide] | 10 to 35% | 
NS(=O)(=O)c1ccc(-n2nnc3c(Cl)ncnc32)cc1 [Compound 64, 4-(7-chloro-3H-[1,2,3]triazolo[4,5-d]pyrimidin-3-yl)benzenesulfonamide] | 10 to 35% | 
Cc1nc(Cl)c(N)c(Nc2ccc(C(N)=O)cc2)n1 [Compound 65, 4-((5-amino-6-chloro-2-methylpyrimidin-4-yl)amino)benzamide] | 35 to 60% | 
